According to US10800757B2, “Inhibitors of TRPC6” (Boehringer Ingelheim International GmbH, priority 2017, dated 2020):
pIC50: −log10 of the molar value. Where a name gives a salt, the structure may show the parent alone.

Molecular target: TRPC6 (Homo sapiens (Human), UniProt Q9Y210)
Experiment: High throughput screening assay: fluorescent calcium (Fluo4/AM) assay of TRPC6 channel activation by GSK1702934A in HEK293/TREx cells
Assay type: cell-based
Details: HEK293/TREx cells stably transfected with TRPC6; agonist GSK1702934A; 7 concentrations 20 μM to 0.027 μM, triplicate
Outline: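 HEK293/TREx cells stably carrying a TRPC6 construct were induced with 1 μg/ml tetracycline, plated at ~35,000 cells/well in 384-well CellBind plates, and loaded with 0.5 μM Fluo4/AM in Ringer's with 1% Pluronic F-127. Compounds were added 2 minutes before 125 nM GSK1702934A in high-Ca2+ Ringer. Fluorescence was read on a Hamamatsu FDSS 6000, normalized to controls, and fitted for IC50 from triplicates.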

Chain of TRPC6 (Q9Y210 whole entry, species assumed): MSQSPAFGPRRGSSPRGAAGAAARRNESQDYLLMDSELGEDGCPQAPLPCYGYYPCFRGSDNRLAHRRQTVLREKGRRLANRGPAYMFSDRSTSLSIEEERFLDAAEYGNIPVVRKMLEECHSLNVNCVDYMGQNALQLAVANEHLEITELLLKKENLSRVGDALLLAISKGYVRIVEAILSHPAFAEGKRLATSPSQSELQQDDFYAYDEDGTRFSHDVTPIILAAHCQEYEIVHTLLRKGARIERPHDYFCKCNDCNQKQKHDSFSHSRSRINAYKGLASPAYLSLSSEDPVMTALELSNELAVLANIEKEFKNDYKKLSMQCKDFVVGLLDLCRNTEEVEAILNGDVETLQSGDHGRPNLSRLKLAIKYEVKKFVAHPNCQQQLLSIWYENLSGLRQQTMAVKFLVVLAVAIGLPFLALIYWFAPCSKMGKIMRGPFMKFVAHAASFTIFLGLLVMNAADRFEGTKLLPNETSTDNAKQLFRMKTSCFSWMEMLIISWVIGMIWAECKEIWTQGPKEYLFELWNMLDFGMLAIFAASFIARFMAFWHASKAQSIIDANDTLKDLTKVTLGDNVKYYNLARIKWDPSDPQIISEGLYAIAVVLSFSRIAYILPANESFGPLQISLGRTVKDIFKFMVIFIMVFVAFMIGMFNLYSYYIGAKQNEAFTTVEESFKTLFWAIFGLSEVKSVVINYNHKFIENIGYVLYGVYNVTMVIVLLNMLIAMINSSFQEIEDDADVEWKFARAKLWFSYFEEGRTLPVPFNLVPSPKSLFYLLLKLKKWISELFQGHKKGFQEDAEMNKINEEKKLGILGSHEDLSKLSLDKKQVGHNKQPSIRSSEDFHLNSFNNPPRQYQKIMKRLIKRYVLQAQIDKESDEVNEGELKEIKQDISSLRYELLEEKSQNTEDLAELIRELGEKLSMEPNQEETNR

| SMILES | pIC50 |
| --- | --- |
| COc1cc(C(=O)N2CCC(c3ccc(N)nn3)CC2)ncc1OCC(C)(C)C [Compound 74, [4-(6-Amino-pyridazin-3-yl)-piperidin-1-yl]-[5-(2,2-dimethyl-propoxy)-4-methoxy-pyridin-2-yl]-methanone] | 5.85 |
| COc1cc(C(=O)N2CCC(c3ccc(N)nn3)CC2)ncc1OCC1(C)CC1 [Compound 75, [4-(6-Amino-pyridazin-3-yl)-piperidin-1-yl]-[4-methoxy-5-(1-methyl-cyclopropylmethoxy)-pyridin-2-yl]-methanone] | 5.82 |
| CCCOc1cnc(C(=O)N2CCC(c3ccc(N)nn3)CC2)cc1OC [Compound 76, [4-(6-Amino-pyridazin-3-yl)-piperidin-1-yl]-(4-methoxy-5-propoxy-pyridin-2-yl)-methanone] | 5.74 |
| COc1cc(C(=O)N2CCC(c3cnc(N)cc3OC)CC2)ncc1O[C@H](C)C1CC1 [Compound 77, (6-Amino-4-methoxy-3′,4′,5′,6′-tetrahydro-2′H-[3,4′]bipyridinyl-1′-yl)-[5-((R)-1-cyclopropyl-ethoxy)-4-methoxy-pyridin-2-yl]-methanone] | 5.66 |
| COc1cc(C(=O)N2CCC(c3nnc(N)cc3C)CC2)ncc1OCC1CC1 [Compound 78, [4-(6-Amino-4-methyl-pyridazin-3-yl)-piperidin-1-yl]-(5-cyclopropylmethoxy-4-methoxy-pyridin-2-yl)-methanone] | 5.55 |
| COc1cc(C(=O)N2CCC(c3ccc(N)nn3)CC2)ncc1O[C@@H](C)C1CC1 [Compound 79, [4-(6-Amino-pyridazin-3-yl)-piperidin-1-yl]-[5-((S)-1-cyclopropyl-ethoxy)-4-methoxy-pyridin-2-yl]-methanone] | 5.43 |
| CCOc1cc(C(=O)N2CCC(c3ccc(N)nn3)CC2)ncc1Oc1ccccc1 [Compound 83, [4-(6-Amino-pyridazin-3-yl)-piperidin-1-yl]-[5-(phenoxy)-4-ethoxy-pyridin-2-yl]-methanone] | 7.01 |
| COc1cc(C(=O)N2CCC(c3nnc(N)cc3C)CC2)ncc1Oc1ccc(C(F)(F)F)cc1 [Compound 90, 6-(1-{4-Methoxy-5-[4-(trifluoromethyl)phenoxy]pyridine-2-carbonyl}piperidin-4-yl)-5-methylpyridazin-3-amine trifluoroacetic acid] | 6.44 |
| COc1cc(N)nnc1C1CCN(C(=O)c2ccc(Oc3ccc(C(F)(F)F)cc3)cn2)CC1 [Compound 91, 5-Methoxy-6-(1-{5-[4-(trifluoromethyl)phenoxy]pyridine-2-carbonyl}piperidin-4-yl)pyridazin-3-amine trifluoroacetic acid] | 6.38 |
| COc1cc(C(=O)N2CCC(c3cnc(N)cc3OC)CC2)ncc1OC[C@H]1C[C@H](C(F)(F)F)C1 [Compound 92, TFA salt of 4-Methoxy-5-[1-(4-methoxy-5-{[3-(trifluoromethyl)-cyclobutyl]methoxy}-pyridine-2-carbonyl)piperidin-4-yl]pyridin-2-amin] | 6.20 |
| COc1cc(C(=O)N2CCC(c3cnc(N)cc3OC)CC2)ncc1OC[C@H]1C[C@@H](C(F)(F)F)C1 [Compound 93, TFA salt of 4-Methoxy-5-[1-(4-methoxy-5-{[3-(trifluoromethyl)-cyclobutyl]methoxy}-pyridine-2-carbonyl)piperidin-4-yl]pyridin-2-amin] | 6.23 |
| COc1cc(C(=O)N2CCC(c3cnc(N)cc3OC)CC2)ncc1OCC1CCC1(F)F (centres unmarked) [Compound 95, 5-(1-{5-[(2,2-Difluorocyclobutyl)-methoxy]-4-methoxy-pyridine-2-carbonyl}-piperidin-4-yl)-4-methoxypyridin-2-amine] | 6.35 |

Further lines, results first:

| pIC50 | SMILES |
| --- | --- |
| > 7.57 | COc1cc(C(=O)N2CCC(c3ccc(N)nn3)CC2)ncc1Oc1ccc(OC(F)(F)F)cc1 [Compound 80, [4-(6-Amino-pyridazin-3-yl)-piperidin-1-yl]-[4-methoxy-5-(4-trifluoromethoxy-phenoxy)-pyridin-2-yl]-methanone] |
| 7.15 | COc1cc(C(=O)N2CCN(c3ccc(N)nc3)C[C@@H]2CO)ncc1Oc1ccccc1 [Compound 81, [(R)-4-(6-Amino-pyridin-3-yl)-2-hydroxymethyl-piperazin-1-yl]-(4-methoxy-5-phenoxy-pyridin-2-yl)-methanone] |
| 6.74 | COc1ccc(Oc2cnc(C(=O)N3CCN(c4ccc(N)nc4)C[C@@H]3CO)cc2OC)cc1 [Compound 82, [(R)-4-(6-Amino-pyridin-3-yl)-2-hydroxymethyl-piperazin-1-yl]-[4-methoxy-5-(4-methoxy-phenoxy)-pyridin-2-yl]-methanone] |
| 6.52 | COc1cc(C(=O)N2CCC(c3cnc(N)cc3OC3CC3)CC2)ncc1Oc1ccccc1 [Compound 84, (6-Amino-4-cyclopropoxy-3′,4′,5′,6′-tetrahydro-2′H-[3,4′]bipyridinyl-1′-yl)-[5-(phenoxy)-4-methoxy-pyridin-2-yl]-methanone] |
| 6.49 | CCOc1cc(N)nnc1C1CCN(C(=O)c2cc(OC)c(Oc3ccccc3)cn2)CC1 [Compound 85, [4-(6-Amino-4-ethoxy-pyridazin-3-yl)-piperidin-1-yl]-[4-methoxy-5-(phenoxy)-pyridin-2-yl]-methanone] |
| 6.46 | CCCOc1cc(N)ncc1C1CCN(C(=O)c2cc(OC)c(Oc3ccccc3)cn2)CC1 [Compound 86, (6-Amino-4-propoxy-3′,4′,5′,6′-tetrahydro-2′H-[3,4′]bipyridinyl-1′-yl)-[5-(phenoxy)-4-methoxy-pyridin-2-yl]-methanone] |
| 6.21 | CCOc1cc(N)nnc1C1CCN(C(=O)c2cc(OC)c(Oc3ccc(C(F)(F)F)cc3)cn2)CC1 [Compound 87] |
| 6.12 | CCOc1cc(C(=O)N2CCC(c3ccc(N)nn3)CC2)ncc1Oc1ccc(F)cc1 [Compound 88, [4-(6-Amino-pyridazin-3-yl)-piperidin-1-yl]-[5-(4-fluoro-phenoxy)-4-ethoxy-pyridin-2-yl]-methanone] |
